# Patent EP4711356A1, “TETRAHYDROCARBAZOLE DERIVATIVE, PHARMACEUTICAL COMPOSITION, AND USE THEREOF” (Nain Biotech (Hangzhou) Co., Ltd., priority 2023, dated 2024)
# Test system: HeLa cell line
# Assay: not given
# Conditions: compared to the control drug ellipticine; Tunbridge et al., 2013; cited from earlier work
row,Structure (SMILES),inhibitory activity against the HeLa cell line
1,COc1cc2c(c(N)c1OC)C(=O)/C(=C\c1cc(C)c(O)c(C)c1)C2 [indanocine],superior inhibitory activity

# Test system: HeLa cells
# Assay: Cell-based pharmacodynamic assay (CellTiter-Glo proliferation inhibition), HeLa
# Conditions: human cervical cancer HeLa cells; 72 hours incubation; CellTiter-Glo luminescence; read-out: IC50 against HeLa cells
# Outline: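 Cells seeded overnight in line-specific media with FBS, then dosed from DMSO stocks (20 mM stock) for 72 h at 37 °C, 5% CO2. Viability by CellTiter-Glo luminescence; inhibition normalised to DMSO and blank wells, IC50 from four-parameter fit.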
row,Structure (SMILES),IC50 [nM]
1,CCOC(=O)c1cccc2[nH]c3c(c12)CCCC3=O [Compound B16],≤ 200
2,Cn1ncc(-c2cccc3[nH]c4c(c23)CCCC4=O)n1 [Compound B67],≤ 200
3,CCCCCC(=O)n1c2c(c3c(C(=O)OCC)cccc31)CCCC2=O [Compound C05],≤ 200
4,Cc1ccc2[nH]c3c(c2c1)CCCC3=NC1CCN(CC(F)(F)F)CC1 [Compound E42],≤ 200
5,Cc1ccc2[nH]c3c(c2c1)CCCC3=NC1CCN(S(=O)(=O)C(C)C)CC1 [Compound E43],≤ 200
6,Cc1ccc2[nH]c3c(c2c1)CCCC3=NC(C)C(=O)OC(C)(C)C (stereo not drawn) [Compound E44],≤ 500
7,COCCN=C1CCCc2c1[nH]c1ccc(C)cc21 [Compound E45],≤ 200
8,COCCOC1CCC(N=C2CCCc3c2[nH]c2ccc(C)cc32)CC1 (stereo not drawn) [Compound E46],≤ 200
9,COC(=O)c1cccc2[nH]c3c(c12)CCCC3=NC(C)C [Compound E47],≤ 200
10,CCN=C1CCCc2c1[nH]c1cccc(C(=O)OC)c21 [Compound E48],≤ 200
11,Cc1ccc2[nH]c3c(c2c1)C(C)CCC3=NCC(=O)OC(C)(C)C (stereo not drawn) [Compound E49],≤ 500
12,Cc1ccc2[nH]c3c(c2n1)CCCC3=NCCO [Compound E50],≤ 200
13,Cc1cccc2[nH]c3c(c12)CCCC3=NCC(=O)OC(C)(C)C [Compound E52],≤ 200
14,Cc1cccc2[nH]c3c(c12)CCCC3=NCCO [Compound E54],≤ 200
15,Cc1ccc2[nH]c3c(c2c1)CCCC3=NC(CC(=O)OC(C)(C)C)C(=O)OC(C)(C)C (stereo not drawn) [Compound E55],≤ 200
16,Cc1ccc2[nH]c3c(c2c1)CCCC3=NC(C(=O)OC(C)(C)C)C(C)C (stereo not drawn) [Compound E56],≤ 200
17,CCCCCN=C1CCCc2c1[nH]c1ccc(C)cc21 [Compound E57],≤ 200
18,COC(=O)c1cccc2[nH]c3c(c12)CCCC3=NCC(C)(C)O [Compound E61],≤ 200
19,COC(=O)c1cccc2[nH]c3c(c12)CCCC3=NC1CCN(C)CC1 [Compound E62],≤ 200
20,CCC(CO)N=C1CCCc2c1[nH]c1ccc(C)cc21 (stereo not drawn) [Compound E63],≤ 500
21,CCC(CO)N=C1CCCc2c1[nH]c1ccc(C)cc21 (stereo not drawn) [Compound E64],≤ 500
22,Cc1ccc2[nH]c3c(c2c1)CCCC3=NC1CCN(CC(F)(F)F)CC1C (stereo not drawn) [Compound E65],≤ 200
23,Cc1ccc2[nH]c3c(c2c1)CCCC3=NC1CCN(S(=O)(=O)C(C)C)CC1C (stereo not drawn) [Compound E66],≤ 200
24,Cc1ccc2[nH]c3c(c2c1)CCCC3=NCCNC(=O)OC(C)(C)C [Compound E67],≤ 200
25,Cc1ccc2[nH]c3c(c2c1)CCCC3=NCCN [Compound E68],≤ 200
26,COC(=O)c1cccc2[nH]c3c(c12)CCCC3=NC(C)C(F)(F)F (stereo not drawn) [Compound E69],≤ 200
27,COC(=O)c1cccc2[nH]c3c(c12)CCCC3=NC(C)C(F)(F)F (stereo not drawn) [Compound E70],≤ 200
28,CSCCC(N=C1CCCc2c1[nH]c1ccc(C)cc21)C(=O)OC(C)(C)C (stereo not drawn) [Compound E71],≤ 200
29,CN=C1CCCc2c1[nH]c1cccc(C(=O)OC)c21 [Compound E72],≤ 200

# Test system: not listed separately
# Assay: Cell-based pharmacodynamic assay (CellTiter-Glo proliferation inhibition), tumor cell line panel
# Conditions: Homo sapiens; one range stated for all 22 listed ovarian, liver, lung, melanoma, pancreatic, colorectal, renal, prostate, gastric, tongue, leukemia and rhabdomyosarcoma cell lines
# Method: Complete media such as RPMI 1640 (Gibco, A1049101), EMEM (ATCC, 30-2003), DMEM (Gibco, C11995500CP), McCoy's 5A (Gibco, 16600082), and F-12K (ATCC, 30-2004) were prepared by supplementing with varying concentrations of FBS (Biological Industries, 04-002-1A) and 1% Penicillin-Streptomycin (Gibco, 15140122) and was thoroughly mixed. Tumor cell lines including HeLa (ATCC, CCL-2; EMEM + 10% FBS), TOV-21G (Cobioer, CBP60292; 1:1 mixture of MCDB 105 and Medium 199 + 15% FBS), OVCAR-3 (ATCC, HTB-161; RPMI 1640 + 20% FBS + 0.01 mg/ml bovine insulin), SK-OV-3 (ATCC, HTB-77; McCoy's 5A + 10% FBS), A2780 (Cobioer, CBP60283; RPMI 1640 + 10% FBS), OC316 (Cobioer, CBP60620; RPMI 1640 + 10% FBS), HuH-7 (Cobioer, CBP60202; DMEM + 10% FBS), SNU-398 (ATCC, CRL-2233; RPMI 1640 + 10% FBS), NCI-H2286 (ATCC, CRL-5938; RPMI 1640 + 5% FBS), NCI-H82 (ATCC, HTB-175; RPMI 1640 + 10% FBS), A549 (ATCC, CCL-185; F-12K + 10% FBS), SK-MEL-3 (ATCC, HTB-69; McCoy's 5A + 15% FBS), PSN-1 (Cobioer, CBP61215; RPMI 1640 + 10% FBS), LoVo (ATCC, CCL-229; F-12K + 10% FBS), DLD-1 (ATCC, CCL-221; RPMI 1640 + 10% FBS), HCT-15 (ATCC, CCL-225; RPMI 1640 + 10% FBS), A498 (ATCC, HTB-44; EMEM + 10% FBS), LNCaP (ATCC, CRL-1740; RPMI 1640 + 10% FBS), SNU-1 (ATCC, CRL-5971; RPMI 1640 + 10% FBS), SCC-9 (Cobioer, CBP60428; DMEM/F12 (1:1) + 10% FBS + 0.5 mM sodium pyruvate + 400 ng/ml hydrocortisone), SU-DHL-5 (ATCC, CRL-2958; RPMI 1640 + 10% FBS), Toledo (ATCC, CRL-2631; RPMI 1640 + 10% FBS), and SJCRH30 (ATCC, CRL-2061; RPMI 1640 + 10% FBS) were thawed. Cells were passaged approximately twice, and those in good growth condition (typically passages 4-6) were selected for experiments. The medium was aspirated, and the cells were washed once with 0.25% trypsin (Invitrogen, 25200-072). The waste liquid was discarded, and 3 mL of fresh trypsin was added to the culture flask for digestion. […] The plates were placed in an Enspire reader (luminescence measurement time: 0.5 s) to record luminescence results. […]
row,Structure (SMILES),IC50 [µM]
1,CCOC(=O)c1cccc2[nH]c3c(c12)CCCC3=O [Compound B16],0.2 to 10
2,Cn1ncc(-c2cccc3[nH]c4c(c23)CCCC4=O)n1 [Compound B67],0.2 to 10
3,CCCCCC(=O)n1c2c(c3c(C(=O)OCC)cccc31)CCCC2=O [Compound C05],0.2 to 10
